Data: patent US20230102554A1 (GB002, INC., priority 2019, published 2023)

How the values were obtained:
[1] = molecular target: T1, Human PDGFRα, cytoplasmic domain (GST-PDGFRα) (Homo sapiens, UniProt P16234); test: Human PDGFRα biochemical inhibition assay (off-chip Mobility Shift Assay)
T1 construct: made in house

[2] = molecular target: T2, Human PDGFRβ, cytoplasmic domain (GST-PDGFRβ) (Homo sapiens, UniProt P09619); test: Human PDGFRβ biochemical inhibition assay (off-chip Mobility Shift Assay)
T2 construct: made in house
T2 sequence (P09619 with tags, fused parts or gaps): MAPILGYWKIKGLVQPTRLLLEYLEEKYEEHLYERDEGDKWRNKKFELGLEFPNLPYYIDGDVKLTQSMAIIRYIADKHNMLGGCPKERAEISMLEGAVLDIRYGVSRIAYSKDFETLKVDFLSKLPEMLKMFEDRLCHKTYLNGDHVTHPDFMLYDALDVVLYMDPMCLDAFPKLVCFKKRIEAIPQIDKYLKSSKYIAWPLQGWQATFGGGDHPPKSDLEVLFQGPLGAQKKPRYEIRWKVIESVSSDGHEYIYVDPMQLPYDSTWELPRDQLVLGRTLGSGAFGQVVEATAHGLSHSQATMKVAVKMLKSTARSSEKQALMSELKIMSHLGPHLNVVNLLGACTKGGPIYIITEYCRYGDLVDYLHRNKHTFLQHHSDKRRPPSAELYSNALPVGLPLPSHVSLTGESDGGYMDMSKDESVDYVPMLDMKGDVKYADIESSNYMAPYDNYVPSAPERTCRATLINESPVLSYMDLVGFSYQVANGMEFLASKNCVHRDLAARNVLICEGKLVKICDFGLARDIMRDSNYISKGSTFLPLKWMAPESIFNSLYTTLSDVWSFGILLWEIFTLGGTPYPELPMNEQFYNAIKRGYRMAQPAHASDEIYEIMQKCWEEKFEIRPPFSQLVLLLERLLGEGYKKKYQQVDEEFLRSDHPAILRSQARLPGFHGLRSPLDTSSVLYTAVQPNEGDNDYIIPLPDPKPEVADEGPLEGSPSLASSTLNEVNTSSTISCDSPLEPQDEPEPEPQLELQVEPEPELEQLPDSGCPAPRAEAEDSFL
Outline: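 GST-tagged cytoplasmic domain (aa 557-1106) from baculovirus was incubated 1 h at room temperature with compound, CSKtide, ATP at Km and Mg²⁺ in HEPES buffer, pH 7.5. Phosphorylated and unphosphorylated peptide were separated by off-chip mobility shift, and the product ratio P/(P+S) gave percent inhibition.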

T1 sequence (P16234 550-1089 T674I): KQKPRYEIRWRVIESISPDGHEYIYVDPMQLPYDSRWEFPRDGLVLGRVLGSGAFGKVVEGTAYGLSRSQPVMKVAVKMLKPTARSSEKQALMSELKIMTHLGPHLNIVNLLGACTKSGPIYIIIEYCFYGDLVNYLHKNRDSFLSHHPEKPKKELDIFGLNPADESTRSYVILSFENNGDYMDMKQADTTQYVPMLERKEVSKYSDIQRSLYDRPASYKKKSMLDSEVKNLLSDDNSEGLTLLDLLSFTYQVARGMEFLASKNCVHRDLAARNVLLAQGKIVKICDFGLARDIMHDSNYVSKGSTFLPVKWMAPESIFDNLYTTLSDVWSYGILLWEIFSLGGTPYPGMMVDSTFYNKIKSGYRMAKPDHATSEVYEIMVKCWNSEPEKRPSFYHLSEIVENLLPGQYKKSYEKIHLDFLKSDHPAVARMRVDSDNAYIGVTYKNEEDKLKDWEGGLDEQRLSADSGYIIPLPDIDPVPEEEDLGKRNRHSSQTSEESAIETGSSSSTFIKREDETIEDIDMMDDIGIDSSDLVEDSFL

Compound	IC50 [1]	IC50 [2]
CCn1cc2ncc(N[C@@H](C)c3cc(NC(=O)c4cnc(C5CC5)c(C)c4)ccc3F)nc2n1 [Compound 322, (S)-6-cyclopropyl-N-(3-(1-((2-ethyl-2H-pyrazolo[3,4-b]pyrazin-6-yl)amino)ethyl)-4-fluorophenyl)-5-methylnicotinamide]	< 300 nM	< 300 nM
CCn1cc(C(=O)Nc2cccc([C@H](C)Nc3cnc4cn(CC)nc4n3)c2)cn1 [Compound 297, (S)-1-ethyl-N-(3-(1-((2-ethyl-2H-pyrazolo[3,4-b]pyrazin-6-yl)amino)ethyl)phenyl)-1H-pyrazole-4-carboxamide]	300 to 1000 nM	300 to 1000 nM
CCOc1ncc(C(=O)Nc2cccc([C@H](C)Nc3cnc4cn(CC)nc4n3)c2)s1 [Compound 362, (S)-2-ethoxy-N-(3-(1-((2-ethyl-2H-pyrazolo[3,4-b]pyrazin-6-yl)amino)ethyl)phenyl)thiazole-5-carboxamide]	< 300 nM	300 to 1000 nM
Cc1cncc(C(=O)Nc2ccc(F)c([C@H](C)Nc3cnc4cnn(C)c4n3)c2)c1 [Compound 172]	< 300 nM	< 300 nM
Cc1cncc(C(=O)Nc2cccc([C@H](C)Nc3cnc4cccnc4c3)c2)c1 [Compound 3, (S)—N-(3-(1-((1,5-naphthyridin-3-yl)amino)ethyl)phenyl)-5-methylnicotinamide]	< 300 nM	≥ 1000 nM
CCn1cc2ncc(N[C@@H](C)c3cccc(NC(=O)Cc4cccc(C(F)(F)F)c4)c3)nc2n1 [Compound 630, (S)-N-(3-(1-((2-ethyl-2H-pyrazolo[3,4-b]pyrazin-6-yl)amino)ethyl)phenyl)-2-(3-(trifluoromethyl)phenyl) acetamide]	< 300 nM	300 to 1000 nM
CCn1cc2ncc(N[C@@H](C)c3cccc(NC(=O)Cc4cccnc4)c3)nc2n1 [Compound 624, (S)-N-(3-(1-((2-ethyl-2H-pyrazolo[3,4-b]pyrazin-6-yl)amino)ethyl)phenyl)-2-(pyridin-3-yl)acetamide]	300 to 1000 nM	≥ 1000 nM
Cc1cncc(C(=O)Nc2cccc([C@H](C)Nc3cnc4cn(-c5cccnc5)nc4n3)c2)c1 [Compound 463, (S)-5-methyl-N-(3-(1-((2-(pyridin-3-yl)-2H-pyrazolo[3,4-b]pyrazin-6-yl)amino)ethyl)phenyl)nicotinamide]	< 300 nM	< 300 nM
COc1ccc(C(=O)Nc2cccc([C@H](C)Nc3cnc4cnn(C)c4n3)c2)cc1OC [Compound 203, (S)-3,4-dimethoxy-N-(3-(1-((1-methyl-1H-pyrazolo[3,4-b]pyrazin-6-yl)amino)ethyl)phenyl)benzamide]	< 300 nM	< 300 nM
Cc1cncc(C(=O)Nc2cccc([C@H](C)Nc3cnc4cc(C)oc4n3)c2)c1 [Compound 17, (S)-5-methyl-N-(3-(1-((6-methylfuro[2,3-b]pyrazin-3-yl)amino)ethyl)phenyl)nicotinamide]	< 300 nM	< 300 nM
Cc1cncc(C(=O)Nc2cccc([C@H](C)Nc3cnc4cc(F)c(F)cc4n3)c2)c1 [Compound 36, (S)-N-(3-(1-((6,7-difluoroquinoxalin-2-yl)amino)ethyl)phenyl)-5-methylnicotinamide]	< 300 nM	< 300 nM
C[C@H](Nc1cnc2cnn(C)c2n1)c1cccc(NC(=O)c2cnc(C3CC3)s2)c1 [Compound 140, (S)-2-cyclopropyl-N-(3-(1-((1-methyl-1H-pyrazolo[3,4-b]pyrazin-6-yl)amino)ethyl)phenyl)thiazole-5-carboxamide]	< 300 nM	< 300 nM
Cc1cc(C(=O)Nc2cccc([C@H](C)Nc3cnc4cnn(C)c4n3)c2)cnc1C#N [Compound 127, (S)-6-cyano-5-methyl-N-(3-(1-((1-methyl-1H-pyrazolo[3,4-b]pyrazin-6-yl)amino)ethyl)phenyl)nicotinamide]	< 300 nM	< 300 nM
Cc1cncc(C(=O)Nc2cccc([C@H](C)Nc3cnc4[nH]cnc4n3)c2)c1 [Compound 23, (S)—N-(3-(1-((1H-imidazo[4,5-b]pyrazin-5-yl)amino)ethyl)phenyl)-5-methylnicotinamide]	300 to 1000 nM	300 to 1000 nM
CCn1cc2ncc(N[C@@H](C)c3cccc(NC(=O)c4cnc(C)c(C)c4)c3)nc2n1 [Compound 328, (S)-N-(3-(1-((2-ethyl-2H-pyrazolo[3,4-b]pyrazin-6-yl)amino)ethyl)phenyl)-5,6-dimethylnicotinamide]	< 300 nM	< 300 nM
CCn1cc2ncc(N[C@@H](C)c3cc(NC(=O)c4ccc(NC)nc4)ccc3F)nc2n1 [Compound 337, (S)-N-(3-(1-((2-ethyl-2H-pyrazolo[3,4-b]pyrazin-6-yl)amino)ethyl)-4-fluorophenyl)-6-(methylamino)nicotinamide]	< 300 nM	< 300 nM
CCn1cc2ncc(N[C@@H](C)c3cccc(NC(=O)Cc4cccc(C(F)(F)F)n4)c3)nc2n1 [Compound 642, (S)-N-(3-(1-((2-ethyl-2H-pyrazolo[3,4-b]pyrazin-6-yl)amino)ethyl)phenyl)-2-(6-(trifluoromethyl)pyridin-2-yl) acetamide]	< 300 nM	300 to 1000 nM
CCn1cc2ncc(N[C@@H](C)c3cccc(NC(=O)c4ccc(CN5CCN(C6CC6)CC5)c(C)c4)c3)nc2n1 [Compound 462, (S)-4-((4-cyclopropylpiperazin-1-yl)methyl)-N-(3-(1-((2-ethyl-2H-pyrazolo[3,4-b]pyrazin-6-yl)amino)ethyl)phenyl)-3-methylbenzamide]	< 300 nM	< 300 nM
C[C@H](Nc1cnc2cnn(C)c2n1)c1cccc(NC(=O)c2cnc3c(c2)OCCO3)c1 [Compound 69, (S)-N-(3-(1-((1-methyl-1H-pyrazolo[3,4-b]pyrazin-6-yl)amino)ethyl)phenyl)-2,3-dihydro-[1,4]dioxino[2,3-b] pyridine-7-carboxamide]	< 300 nM	< 300 nM
C[C@H](Nc1cnc2cn[nH]c2n1)c1cccc(NC(=O)c2cncc(C(C)(C)F)c2)c1 [Compound 94, (S)-N-(3-(1-((1H-pyrazolo[3,4-b]pyrazin-6-yl)amino)ethyl)phenyl)-5-(2-fluoropropan-2-yl) nicotinamide]	< 300 nM	< 300 nM
C[C@H](Nc1cnc2cn[nH]c2n1)c1cccc(NC(=O)c2cncc(C(C)(C)O)c2)c1 [Compound 95, (S)-N-(3-(1-((1H-pyrazolo[3,4-6]pyrazin-6-yl)amino)ethyl)phenyl)-5-(2-hydroxypropan-2-yl)nicotinamide]	< 300 nM	< 300 nM
CCn1cc2ncc(N[C@@H](C)c3cccc(NC(=O)Cc4cc(C)c(C)cn4)c3)nc2n1 [Compound 693, (S)-2-(4,5-dimethylpyridin-2-yl)-N-(3-(1-((2-ethyl-2H-pyrazolo[3,4-b]pyrazin-6-yl)amino)ethyl)phenyl)acetamide]	< 300 nM	≥ 1000 nM
CCn1cc2ncc(N[C@@H](C)c3cc(NC(=O)c4ccc(CN5CCOCC5)c(C(F)(F)F)c4)ccc3F)nc2n1 [Compound 428, (S)-N-(3-(1-((2-ethyl-2H-pyrazolo[3,4-b]pyrazin-6-yl)amino)ethyl)-4-fluorophenyl)-4-(morpholinomethyl)-3-(trifluoromethyl)benzamide]	< 300 nM	< 300 nM
Cc1cncc(C(=O)Nc2cccc([C@H](C)Nc3cnc4cc(C)oc4c3)c2)c1 [Compound 22, (S)-5-methyl-N-(3-(1-((2-methylfuro[3,2-b]pyridin-6-yl)amino)ethyl)phenyl)nicotinamide]	< 300 nM	< 300 nM
